# Experimental data taken from patent US11110092B2, “Methods of treating hematologic cancers” (BIOCRYST PHARMACEUTICALS, INC, priority 2007, dated 2021).
# Like-named read-outs stand apart in the source and are kept apart here. Peptide text beside a SMILES is read from it. * marks the point of attachment. Cbz = O=C(OCc1ccccc1)*; CH2F = FC*
# What was measured:
# [1] = system: mitochondrial transmembrane potential in CLL cells; assay: Loss of mitochondrial transmembrane potential (DiOC6 staining, flow cytometry); assay type: cell-based, human; conditions: for effect of pre-incubation on Δψm loss induced by forodesine: ROS scavenger pre-incubation
# Method: (§1) Cells were incubated for different time points with forodesine at doses ranging from 1 to 12 μM in the presence or absence of 10-20-30 μM of deoxyguanosine (dGuo). When indicated, cells were pre-incubated for 1 hour with the pan-caspase inhibitor z-VAD.fmk (benzyloxy-carbonyl-Val-Ala-Asp-fluoro-methylketone; Bachem, Bubendorf, Switzerland) at 80 the caspase-8 inhibitor z-IETD.fmk at 50 μM (Z-Ile-Glu(OMe)Thr-DL-Asp (OMe)-fluoromethylketone, Bachem), 2′-deoxycytidine (5-10-20 μM, Sigma), N-acetyl-L-cysteine (NAC, 25 mM), Tiron (5 mM, 4,5-Dihydroxy-1,3-Benzene-disulfonic acid, Sigma) or GSH (2 mM; Sigma). […] Loss of mitochondrial transmembrane potential (ΔΨm) were evaluated by staining cells with 20 nM of DiOC6 (3,3-diexyloxacarbocyanine iodide, Molecular Probes) and reactive oxygen species (ROS) production was determined by staining cells with 2 μM dihydroethidine (DHE; Molecular Probes) and flow cytometry analysis.
# [2] = system: primary leukemic cells from patients with CLL; design: cell death: dose or concentration left out as unconfirmed
# Method: The present in vitro study was carried out in primary leukemic lymphocytes from 43 patients diagnosed with CLL according to the World Health Organization classification. Informed consent was obtained from each patient.
# Peripheral blood mononuclear cells (PBMCs) cells were isolated by Ficoll/Hypaque sedimentation (Seromed, Berlin, Germany). Cells were either used directly or cryopreserved in liquid nitrogen in the presence of 10% dimethyl sulfoxide and 90% heat-inactivated fetal bovine serum (FBS, Gibco Paisley, Scotland, UK).
# Cells were incubated for different time points with forodesine at doses ranging from 1 to 12 μM in the presence or absence of 10-20-30 μM of deoxyguanosine (dGuo). When indicated, cells were pre-incubated for 1 hour with the pan-caspase inhibitor z-VAD.fmk (benzyloxy-carbonyl-Val-Ala-Asp-fluoro-methylketone; Bachem, Bubendorf, Switzerland) at 80 the caspase-8 inhibitor z-IETD.fmk at 50 μM (Z-Ile-Glu(OMe)Thr-DL-Asp (OMe)-fluoromethylketone, Bachem), 2′-deoxycytidine (5-10-20 μM, Sigma), N-acetyl-L-cysteine (NAC, 25 mM), Tiron (5 mM, 4,5-Dihydroxy-1,3-Benzene-disulfonic acid, Sigma) or GSH (2 mM; Sigma). […] Cell viability and apoptosis induction was analyzed by changes in cell complexity by means of FSC/SSC, quantification of phosphatidyl serine (PS) exposure by double staining with Annexin-V conjugated to fluorescein isothiocyanate (FITC) and propidium iodide (PI) (BenderMedsystems, Vienna, Austria). For the analysis of apoptosis in the CD3^+ and CD19^− populations, PBMCs were labeled simultaneously with anti-CD3-FITC (Immunotech, Marseille, France), anti-CD19-PE (Becton Dickinson) and Annexin-V-APC. Cell viability and cytotoxicity were plotted as percentage with respect to control cells. Loss of mitochondrial transmembrane potential (ΔΨm) were evaluated by staining cells with 20 nM of DiOC6 (3,3-diexyloxacarbocyanine iodide, Molecular Probes) and reactive oxygen species (ROS) production was determined by staining cells with 2 μM dihydroethidine (DHE; Molecular Probes) and flow cytometry analysis. […] In brief, cells were washed once in PBS and fixed in paraformaldehyde 4%, permeabilized with 0.1% saponin and 0.5% bovine serum albumin (BSA). […] After several washes in permeabilization buffer, cells were incubated with a secondary goat anti-mouse FITC (DAKO) or goat anti-rabbit FITC (Supertechs) antibody and washed again with permeabilization buffer. Ten thousand stained cells per sample were then analyzed by flow cytometry.
# [3] = system: dCK phosphorylated at Ser-74 in CLL cells; assay: Western blot of dCK phosphorylation at Ser-74; assay type: cell-based, human
# [4] = system: intracellular dGTP in CLL primary cells; assay: Measurement of intracellular dGTP levels (DNA polymerase assay); assay type: cell-based, human; conditions: forodesine 2 μM and dGuo 10 μM; 26 CLL patients; 18 hours
# Method: 15×10^6 of CLL primary cells were incubated with or without forodesine (2 μM) and dGuo (10 μM) or fludarabine (1 μg/ml) for 18 hours and the nucleotides were extracted with 60% methanol and intracellular dGTP levels were quantified by DNA polymerase assay as modified by Sherman and Fyfe (Sherman et al., Anal Biochem, 180(2), 222-226 (1989)). Data were expressed in fold induction of intracellular dGTP levels respect of control cells. In parallel, cell viability at 24 and 48 hours were also evaluated.
# [5] = system: ROS in CLL primary cells; assay: Reactive oxygen species production (dihydroethidine staining, flow cytometry); assay type: cell-based, human; conditions: for effect of pre-incubation on ROS production induced by forodesine: ROS scavenger pre-incubation
# Method: as §1
# [6] = system: caspase-9, -8 and -3 in CLL cells; assay: Caspase activation by immunoblotting; assay type: cell-based, human; conditions: as early as 10 hours of forodesine treatment
# [7] = system: BID in CLL cells; assay: BID processing by immunoblotting; assay type: cell-based, human; conditions: forodesine treatment
# [8] = system: XIAP and survivin in CLL cells; assay: XIAP and survivin levels by immunoblotting; assay type: cell-based, human; conditions: forodesine treatment
# [9] = system: MCL-1 in CLL cells; assay: MCL-1 protein levels by immunoblotting; assay type: cell-based, human; conditions: forodesine treatment
# [10] = system: BCL-2 in CLL cells; assay: BCL-2 protein levels by immunoblotting; assay type: cell-based, human; conditions: forodesine treatment
# [11] = system: BIM in CLL cells; assay: BIM protein levels by immunoblotting; assay type: cell-based, human; conditions: forodesine treatment
# [12] = system: BAX and BAK in CLL cells; assay: BAX and BAK activation by flow cytometry (conformational change); assay type: cell-based, human; conditions: incubation of CLL cells with forodesine
# [13] = system: p53 in CLL cells; assay: p53 protein stabilization by immunoblotting; assay type: cell-based, human; conditions: CLL cases with no 17p deletion
# [14] = system: p73 in CLL cells; assay: p73 mRNA (real time RT-PCR) and TAp73 protein levels; assay type: cell-based, human; conditions: all CLL cases analyzed
# Method: Cells were lysed for 15 min in RIPA buffer supplemented with protease and phosphatase inhibitors (leupeptine 10 μg/ml, apoprotinine 10 μg/ml, 1 μM PMSF, 1 μM sodium ortovanadate, 1 μM NaF, 2 μM sodium pyrophosphate decahydrate (Sigma)). Total cellular proteins were separated by SDS-PAGE under reducing conditions and transferred to Immobilon-P (Millipore) membranes. […] Equal protein loading was confirmed with β-actin or α-tubulin expression and relative protein quantification was done with Image Gauge Fujifilm software (Fuji). […] The expression levels of p73 and Mcl-1 were determined in an ABI Prism 7900HT Sequence Detection System (Applied Biosystems, Foster City, Calif.) using pre-designed Assay-on-demand (Applied Biosystems). The relative expression of each gene was quantified by the comparative cycle threshold (Ct) method (ΔΔCt), using GUS as an endogenous control. mRNA expression levels were given as arbitrary quantitative PCR units, taking as a calibrator the control sample (untreated) of each case.
# [15] = system: FOXO1 and FOXO3a in CLL cells; assay: FOXO1 and FOXO3a levels by immunoblotting; assay type: cell-based, human; conditions: CLL cells treated with forodesine
# [16] = Gandhi et al. 2005; Korycka et al. 2007; cited from earlier work
# [17] = caspase-8 inhibitor pre-incubation
molecule,measurement,setting,value
"CC[C@H](C)[C@H](NC(=O)OCc1ccccc1)C(=O)N[C@@H](CCC(=O)OC)C(=O)N[C@H](C(=O)N[C@@H](CC(=O)OC)C(=O)CF)[C@@H](C)O (racemic) [z-IETD.fmk, Z-Ile-Glu(OMe)Thr-DL-Asp (OMe)-fluoromethylketone]",reversion of ΔΨm loss induced by forodesine,[1]; [17],more pronounced
same,effect on forodesine apoptosis induction (Annexin V staining),[2]; [17],partially blocked
Cl.Cn1c(CCCC(=O)O)nc2cc(N(CCCl)CCCl)ccc21 [Bendamustine],phosphorylated form (at Ser-74) of dCK,[3],not exerted
Nc1nc(F)nc2c1ncn2[C@@H]1O[C@H](CO)[C@@H](O)[C@@H]1O [Fludarabine],mean cytotoxicity,[2],25.1±13%
same,mean cytotoxicity as single agents,[2],50.6±11%
Cl.O=c1[nH]cnc2c([C@@H]3N[C@H](CO)[C@@H](O)[C@H]3O)c[nH]c12 [Forodesine],increase in intracellular dGTP levels with respect to control basal levels,[4],up to 96 times fold increase
same,phosphorylated form (at Ser-74) of dCK,[3]; western blot in CLL cells,increase in the phosphorylated form
same,mitochondrial transmembrane potential (Δψm),"[1]; early times, evident after 10 hours",induced loss of mitochondrial transmembrane potential
same,ROS production,"[5]; CLL primary cells, evident after 10 hours",induced the production of ROS
same,"activation of caspase-9, -8 and -3 (processing of pro-inactive form)",[6],dose- and time-dependent activation
same,BID protein,[7],induced a decreased of BH3-only protein BID
same,XIAP and survivin levels,[8],decrease of the inhibitors of apoptosis XIAP and survivin
same,MCL-1 protein levels,[9],considerably decreased
same,BCL-2 protein levels,[10],not affected
same,BIM protein levels,[11],induced an increase
same,activation of BAX and BAK,[12],induced the conformational change of BAX and BAK
same,p53 protein,[13],induce stabilization of p53 protein
same,p73 mRNA and TAp73 protein levels,[14],clear up-regulation
same,FOXO1 and FOXO3a levels,[15],"induced an increase in both, FOXO1 and FOXO3a"
same,cytotoxic effect of agent alone,[2],did not induce a cytotoxic effect
same,share of cases with cytotoxic effect between 40-60%,[2],41.8%
same,response of p53 deleted CLL cases,"[2]; 11 CLL patients with 17p deletions, Forodesine 2 μM+dGuo 20 μM, 48 hours",high response
same,response in samples with no or low in vitro response to bendamustine 25 μM and/or fludarabine 1 μg/ml,[2]; 12 of 32 CLL patient samples,high response
same,mean cytoxicity,"[2]; CLL cells with high levels of ZAP-70, 22 CLL patients",57.9%±12
same,mean cytoxicity with respect to control,"[2]; CLL cells with low levels of ZAP-70, 17 CLL patients",58.1%±11
same,response of CLL cells with low or no sensitivity to Bendamustine or Fludarabine,[2]; Forodesine 2 μM and dGuo 10-20 μM,good response
same,cell death (Annexin-V+ staining),"[2]; forodesine 2-5-10 μM with dGuo 10-20 or 30 μM, 48 hours",induced cell death
same,"response in CLL cells with 13q deletion, 11q deletion and 17p deletion",[2]; forodesine-induced cytotoxicity,good response
same,"cell death, CLL fresh samples","[2]; n=10, 48 hours",56.6%±6.4
same,"cell death, cryopreserved primary CLL samples","[2]; n=32, 48 hours",58.3%±11
same,toxicity profile,[16],low toxicity profile
"CCOC(=O)CNC(=O)[C@H](CS)NC(=O)CC[C@H](N)C(=O)O [GSH, glutathione-reduced ethyl ester]",effect of pre-incubation on Δψm loss induced by forodesine,[1],reduced Δψm loss
same,effect of pre-incubation on ROS production induced by forodesine,[5],moderated
"CC(=O)N[C@@H](CS)C(=O)O [NAC, N-acetyl-L-cysteine]",effect of pre-incubation on Δψm loss induced by forodesine,[1],reduced Δψm loss
same,effect of pre-incubation on ROS production induced by forodesine,[5],practically reverted ROS production
"O=S(=O)(O)c1cc(O)c(O)c(S(=O)(=O)O)c1 [Tiron, 4,5-Dihydroxy-1,3-Benzene-disulfonic acid]",effect of pre-incubation on Δψm loss induced by forodesine,[1],reduced Δψm loss
same,effect of pre-incubation on ROS production induced by forodesine,[5],practically reverted ROS production
"Nc1nc2c(ncn2[C@H]2C[C@H](O)[C@@H](CO)O2)c(=O)[nH]1 [dGuo, deoxyguanosine]",cytotoxic effect of agent alone,[2],did not induce a cytotoxic effect
"Nc1ccn([C@H]2C[C@H](O)[C@@H](CO)O2)c(=O)n1 [deoxycytidine, 2′-deoxycytidine]",effect of pre-incubation on forodesine-induced cell death,[2]; deoxycytidine 5-10 μM,inhibited forodesine-induced cell death
same,effect on cell death induced by bendamustine,[2]; deoxycytidine pre-incubation,not reverted
same,effect on loss of cell viability induced by fludarabine,[2]; deoxycytidine pre-incubation,reverted the loss of cell viability
"COC(=O)C[C@H](NC(=O)[C@H](C)NC(=O)[C@@H](NC(=O)OCc1ccccc1)C(C)C)C(=O)CF [z-VAD.fmk, benzyloxy-carbonyl-Val-Ala-Asp-fluoro-methylketone] (Cbz-Val-Ala-Asp(OMe)-CH2F)",effect on phosphatidylserine exposure after forodesine treatment,"[2]; broad range caspase inhibitor pre-incubation, forodesine 24 hours",partially reduced phospatidylserine exposure
Rituximab,cell death,"[2]; single agent or combined with forodesine, 24 hours",low
